One may read the IC75 as the concentration needed for an effect of 75%. A higher IC75 goes with weaker potency.

{TEG} = triethylene glycol 5' moiety of the PMO, as defined in the publication Some results are limits rather than exact numbers.

In one data set the test system is Klebsiella pneuomoniae. Description: MIC of meropenem with added NDM-1-targeted PPMO. The class given is cell-based. The following applies: without PPMO, data not shown.
For data set [1], the system named is adeA-expressing Acinetobacter baumanii. Description: MIC of gentamicin, tobramycin and tetracycline with added adeA-targeted PPMO (CLSI microdilution). The class given is cell-based. The conditions noted are these: concentration dependent. (In general: In broth dilution the organism is exposed to a series of concentrations in liquid medium.)
Data set [2] has as its system B. cenocepacia K56-2. Nature of the data set: Bcc growth in artificial CF sputum. The format is cell-based. The procedure:
B. cenocepacia K56-2 was incubated alone or in the presence of either a scrambled sequence (Scr) placebo PPMO or acpP PPMO (PPMO #15, Table 2C) at 10 μM or 20 μM concentration. Media or PPMO was dosed at 2, 8 and 12 hours. Samples were plated at 24 hours and CFU/ml was determined.
PPMOs were tested to determine whether they retained their activity in sputum. Using a well-described method for making “artificial CF sputum,” experiments were conducted to see whether a PPMO could reduce the burden of Bcc in this environment (FIG. 12). B. cenocepacia K56-2 was incubated alone or in the presence of either a scrambled-sequence (Scr) placebo PPMO or acpP PPMO (PPMO #15). The acpP-targeted PPMO has the following sequence: GTCCATTACCC (PPMO #15; SEQ ID NO: 25). The PPMO was conjugated at its 5′ end to the C-terminal β-alanine residue of (RFF)3RXB (SEQ ID NO: 41). Media or PPMO was dosed at 2, 8 and 12 hours. Samples were plated at 24 hours and CFU/ml was determined. The acpP PPMO was able to reduce the organism burden (both at 10 and 20 μM dosing). At 10 μM dosing, there was an approximately 2-log reduction in CFU/ml by 24-hours compared to no treatment control. At 20 μM dosing, there was a >3-log reduction seen. This reduction was apparent as early as 8 hours in the 20 μM group and 12 hours in the 10 μM group. These experiments indicate that PPMOs remain active even in the thick viscous sputum that is seen in CF patients. This is the first time that activity of PPMOs has been tested in sputum.

The subject of another data set is B. multivorans. Nature of the data set: Aerosol PPMO in pulmonary infection model, lung burden. The class given is in vivo. The following applies: single 300 μg aerosol dose 6 hours post-infection; CGD mice; 24 hours after infection. The procedure:
Chronic granulomatous disease (CGD) mice were used as a Bcc infection model. An Aerogen nebulizer was used to deliver either scrambled (Scr) PPMO ([…]) or acpP PPMO (PPMO #15, Table 2C, 300 μg or 30 μg) as a one-time dose 6 hours post-infection. Mice were euthanized 24 hours after infection and lung burden was determined as CFU/g.
Delivering PPMOs directly to the lung in the setting of chronic pulmonary infections would be useful. Chronic granulomatous disease (CGD) mice were used as a Bcc infection model. These mice develop significant morbidity and mortality when infected with various Bcc strains. Mice were infected intranasally with a clinical B. multivorans isolate (FIG. 15). An Aerogen nebulizer was used to deliver either scrambled (Scr) PPMO (300 μg) or acpP PPMO (PPMO #15, 300 μg or 30 μg) as a one-time dose 6 hours post-infection. The acpP-targeted PPMO has the following sequence: GTCCATTACCC (SEQ ID NO: 25). The PPMO was conjugated at its 5′ end to the C-terminal β-alanine residue of (RFF)3RXB (SEQ ID NO: 41). Mice were euthanized 24 hours after infection and lung burden was determined. The single 300 μg dose of the acpP PPMO reduced the lung burden by 93% and was a statistically significant decrease. Aerosol delivery of PPMOs is a viable therapeutic strategy and importantly, this is the first time that nebulized delivery of Bcc PPMOs has been attempted.

A further data set concerns 39 Bcc clinical isolates. Nature of the data set: PPMO MIC against a panel of 39 Bcc clinical isolates. The format is cell-based, Burkholderia cepacia complex. The conditions noted are these: panel of 39 isolates; FIG. 10. Here is the method: A variety of Bcc isolates were tested, including clinical isolates obtained from various body sites with varying levels of antibiotic resistance. The strain bank included 39 isolates that comprised the most frequently encountered species that have been reported to cause human disease. […] All 6 of these PPMOs targeted AcpP (an acyl carrier protein associated with fatty acid biosynthesis). Differences in the 6 PPMOs related to alternative positioning sites on the target mRNA.

The next data set relates to B. cenocepacia HI4277. Description: 24 hour growth with acpP PPMOs (bactericidal test), pan-resistant strain. The format is cell-based. The following applies: FIG. 11 Panel B. The procedure: (§1) Two different isolates of B. cenocepacia were incubated for 24 hours in the presence or absence of different acpP PPMOs. All three acpP PPMOs caused a significant reduction of growth in the clinical CF isolate B. cenocepacia K56-2 (Panel A) and this effect was also seen for the pan-resistant strain B. cenocepacia H14277 (Panel B).
(§2) Many members of the Bcc are intrinsically antibiotic resistant making treatment difficult. B. cenocepacia is one of the most common species encountered by cystic fibrosis (CF) patients. Two different isolates of B. cenocepacia were incubated for 24 hours in the presence or absence of different acpP PPMOs (FIG. 11).

A further data set deals with B. cenocepacia H14277. Description: PPMO MIC, pan-resistant strain (FIG. 10). The class given is cell-based. The procedure: In B. cenocepacia K56-2 (a genome-sequenced clinical CF isolate; Panel A) all three PPMOs caused a significant reduction of growth with one PPMO (PPMO #19; SEQ ID NO: 27; 16 μM) causing>3-log reduction of growth compared to the starting inoculum, a strong bactericidal effect. Importantly, this effect was seen even in pan-resistant strains of B. cenocepacia (HI4277, a pan-resistant outbreak isolate from CF patients; FIG. 11, Panel B). […] The MIC of PPMO #19 was 8 μM in H14277 (FIG. 10), illustrating that PPMOs' ability to inhibit growth is not dependent on the underlying level of antibiotic resistance in any particular strain, an important finding with positive implications for this approach.

Data set [3] has as its system B. cenocepacia K56-2. Nature of the data set: 24 hour growth with acpP PPMOs (bactericidal test). The format is cell-based. The following applies: 16 μM, FIG. 11 Panel A. The procedure:
as §1, §2

In another data set the test system is B. cenocepacia J2315. Description: MBEC peg biofilm assay, crystal violet and confocal microscopy. The following applies: 10 μM. The class given is cell-based. Here is the method:
B. cenocepacia J2315 was grown utilizing MBEC biofilm assay plates for 48 hours in the presence of either acpP PPMO (10 μM), scrambled PPMO (10 μM), peptide or media alone. Biofilm production was measure utilizing a crystal violet method.
The pegs were moved to fresh media containing either nothing, the Scrambled (Scr) control PPMO at 10 μM concentration, or the acpP PPMO at 10 μM concentration. The MBEC pegs were incubated for another 48 hours and then stained with fluorescent green peanut-agglutinin stain for the biofilm and imaged on confocal microscopy.
The formation of biofilm is a significant virulence trait and is utilized by both P. aeruginosa and the Bcc. Bcc biofilms were grown and PPMOs were tested for their ability to both prevent biofilm formation and to deconstruct existing biofilms. B. cenocepacia J2315 (a genome sequenced, epidemic CF isolate) was grown utilizing MBEC biofilm assay plates which contain a peg that grows reproducible biofilms from day to day. J2315 was grown for 48 hours in the presence of either acpP PPMO (10 μM), scrambled PPMO (10 μM), peptide or media alone (FIG. 13). The acpP-targeted PPMO (PPMO #19) has the following sequence: CCATTACCCCT (SEQ ID NO: 27). The PPMO was conjugated at its 5′ end to the beta-alanine residue of (RFF)3RXB (SEQ ID NO: 41). Biofilm production was measured utilizing a crystal violet method. […]

As for `C[C@@H](O)[C@H]1C(=O)N2C(C(=O)O)=C(S[C@@H]3CN[C@H](C(=O)N(C)C)C3)[C@H](C)[C@H]12` [meropenem], the MIC with Klebsiella pneuomoniae was about 64 µM.

“PPMO #5: adeA-targeted PMO ATA CTG TCC AA (SEQ ID NO: 15); 5′ TEG; 3′ (RXR)4XB- peptide (antisense ATACTGTCCAA; all phosphorodiamidate morpholino (PMO), 5' {TEG}; 3' end conjugated to (RXR)4XB peptide via beta-alanine)”: the MIC of gentamicin result in data set [1] (FIG. 2) was “significantly reduced”. Also, the MIC of tobramycin result in data set [1] (FIG. 3) is “significantly reduced”. The MIC of tetracycline entry in [1] (FIG. 4) was “significantly reduced”.

“PPMO #15: acpP-targeted PMO GTCCATTACCC (SEQ ID NO: 25); 5′ (RFF)3RXB- peptide; 3′ H (all phosphorodiamidate morpholino (PMO); 5' end conjugated to (RFF)3RXB peptide via beta-alanine, further chemistry not fully specified)”: the “reduction in CFU/ml compared to no treatment control” value is “approximately 2 log” in the data set on B. cenocepacia K56-2 [2] (10 μM dosing at 2, 8 and 12 hours, by 24-hours); over 3 log with B. cenocepacia K56-2 [2] (20 μM dosing at 2, 8 and 12 hours, 24 hours). Also, the “time at which the reduction was apparent” value in the data set with B. cenocepacia K56-2 [2] (10 μM group) is 12 h; in the data set with B. cenocepacia K56-2 [2] (20 μM group), 8 h. Besides, the “reduced the lung burden” value in the data set on B. multivorans amounted to 93%.

For the compound “PPMO #19: acpP-targeted PMO CCATTACCCCT (SEQ ID NO: 27); 5′ (RFF)3RXB- peptide; 3′ H (all phosphorodiamidate morpholino (PMO); 5' end conjugated to (RFF)3RXB peptide via beta-alanine, further chemistry not fully specified)”, the IC75 in the data set on 39 Bcc clinical isolates is 4 µM. Also, in the data set on B. cenocepacia HI4277, the bactericidal effect entry is reported as “bactericidal”. The MIC against B. cenocepacia H14277 worked out at 8 µM. Besides, the “reduction of growth compared to the starting inoculum” value in the data set with B. cenocepacia K56-2 [3] is recorded as over 3 log. The “reduced biofilm formation compared to controls” value with B. cenocepacia J2315 (48 hours, crystal violet, FIG. 13) is over 50%. Besides, the “amount of existing biofilm present” value in the data set on B. cenocepacia J2315 (48 h biofilm then 48 hours more, confocal microscopy and crystal violet, FIG. 14C) is “significantly reduced”.

These data come from patent US11021706B2, “Antisense antibacterial compounds and methods” (priority 2014, dated 2021).
